Earlier results in patent publication US8821904B2, “Topical composition and use thereof for the prophylaxis and the treatment of defects connected to inflammatory dermopathies” (Skinius S.R.L., priority 2010, dated 2014).

System: seborrhoeic eczema
Conditions: topically applied, after four weeks of treatment

CC(=O)N1CCN(c2ccc(OCC3COC(Cn4ccnc4)(c4ccc(Cl)cc4Cl)O3)cc2)CC1 (stereo not shown) [ketoconazole]
Improvement of seborrhoeic eczema, percentage of the cases: 75%
